Ends that are not written are not given here.
How the values were obtained:
bronchial smooth muscle = experiment: Bronchus-expanding action: relaxation of carbachol-contracted guinea pig tracheal chain in organ bath; format: cell-based, guinea pigs; settings: 0.1 μmol/l carbachol-contracted trachea
Excerpt: Purified peptides 1 to 15 obtained in Examples 1 to 15 were examined for their bronchus-expanding action in the following manner and compared with that of VIP and PACAP.
Male guinea pigs each weighing 450 to 500 g were cut at the jugular veins to open the chests, and immediately the tracheae were immediately removed. Their tracheae were immediately placed in a Krebs solution and cut into loops and then formed into a chain by linking the cartilage parts with one another via a steel string. Then, the cartilage parts in the opposite side to the smooth muscular parts were cut such that the smooth muscular parts were attached to one another. The resulting sample was placed in an about 10-ml isothermic organ bath and perpendicularly suspended. The lower part was fixed and the upper part was connected to a grass force transducer with a load of 1.4 g. A gas of 94% oxygen and 6% carbon dioxide was sufficiently blown into this sample while a Krebs solution containing 0.1μ mol/l carbachol was dropped to it at a rate of 0.33 ml/min. to determine relaxation action. Because the relaxation reaction occurs depending on the content of a test sample in this drop solution, this can be used to compare the relaxation action of VIP and PACAP and that of the peptides of the invention on the bronchial smooth muscle.
A solution of each of […], PACAP and the peptides of the invention was prepared in a concentration as high as 100-fold than the final concentration so that its concentration in the organ bath could be adjusted. 30 minutes after the carbachol-containing Krebs solution was dropped, 100 μl of the sample solution was dropped.
It was assumed that the degree of contraction of the smooth muscle is 0 in the absence of carbachol and the degree is 100 in the presence of carbachol. Minimum contraction degree A (i.e. maximum relaxation value) in the presence of the sample was determined, and maximum relaxation degree B was calculated as follows:
Maximum relaxation degree B (%)=100-A
The time required to reach half of the maximum relaxation value (referred to hereinafter as "half-time T") after the addition of the sample was determined.
A change in the relaxation degree of the bronchial smooth muscle with time was determined using each peptide at 3 dosages of 0.3 μM, 1 μM, and 3 μM respectively. The results are shown in the drawings: PACAP in FIG. 1; peptide 5 obtained in Example 5, in FIG. 2; VIP in FIG. 3; and peptide 11 obtained in Example 11, in FIG. 4. The maximum relaxation degree B at a dosage of 3 μM is 75% for peptide 5 and 80% for peptide 11, and half-time T is 360 minutes or more in both the cases.

Wistar male rats = experiment: Blood-flow increasing action in anesthetized rats (femoral artery blood flow, carotid blood pressure); format: in vivo; settings: 100 pmol/kg intraarterially, right femoral artery
Method: Purified peptides 1 to 15 obtained in Examples 1 to 15 were examined for their blood-flow increasing action and compared with those of VIP and PACAP. Wistar male rats each weighing 220 to 250 g were anesthetized by intraperitoneal administration of pentobarbital (25 mg/kg) and fixed on their back. An arterial canula was inserted into the carotid and then connected to a blood-pressure transducer (DX-300, Nippon Koden, Japan) via a doom kit (SCK-512, Nippon Koden) filled with heparin-containing physiological saline (10 U/ml) to measure blood pressure with a strain blood-pressure amplifier (AP-601G, Nippon Koden). Further, a blood-flow measurement probe (FR-030T, Nippon Koden) was attached to the right femoral artery and then connected to an electromagnetic blood-flow meter (MFV-3200, Nippon Koden) to measure blood flow. The dosage of each peptide intraarterially administrated was 100 pmol/kg.

Q: How did the “Half-time T (time required to reach half of the maximum relaxation value)” value (“Half-time T” for short) (bronchial smooth muscle; 0.3 μM) turn out when “pituitary adenylate cyclase activating polypeptide (HSDGIFTDSYSRYRKQMAVKKYLAAVLGKRYKQRVKNK; ends and bridges not checked; UniProt P16613 132-169, looked up) [PACAP, structurally determined peptide consisting of 38 amino acid residues, isolated from sheep hypothalamus]” was run?
A: 60 min

Q: And the “Maximum relaxation degree B” value (bronchial smooth muscle; 0.3 μM)?
A: 40%

Q: And the “Half-time T” value (bronchial smooth muscle; 1 μM)?
A: 60 min

Q: What about the “Maximum relaxation degree B” value (bronchial smooth muscle; 1 μM) of the same substance?
A: 90%

Q: What about the “Half-time T” value (bronchial smooth muscle; 3 μM) of the same substance?
A: 100 min

Q: What about the “Maximum relaxation degree B” value (bronchial smooth muscle; 3 μM) of the same substance?
A: 90%

Q: And the “Blood Flow (increase in blood flow)” value (Wistar male rats)?
A: 16.04 ± 5.92 mL/min

Q: Which “Half-time T” value (bronchial smooth muscle; 0.3 μM) does the source give for vasoactive intestinal peptide [VIP] here?
A: 130 min

Q: And the “Maximum relaxation degree B” value (bronchial smooth muscle; 0.3 μM)?
A: 45%

Q: What about the “Half-time T” value (bronchial smooth muscle; 1 μM) of the same substance?
A: 150 min

Q: What about the “Maximum relaxation degree B” value (bronchial smooth muscle; 1 μM) of the same substance?
A: 80%

Q: And the “Half-time T” value (bronchial smooth muscle; 3 μM)?
A: 240 min

Q: What about the “Maximum relaxation degree B” value (bronchial smooth muscle; 3 μM) of the same substance?
A: 85%

Q: And the “Blood Flow (increase in blood flow)” value (Wistar male rats)?
A: 10.18 ± 3.38 mL/min

— US5856303A, “Peptide, a bronchus-expanding agent, and a blood-flow-improving agent” (Itoham Foods, Inc., priority 1995, dated 1999)
